Assay results reported in US9957267B2, “Somatostatin modulators and uses thereof” (Crinetics Pharmaceuticals, Inc., priority 2015, dated 2018).
pEC50: −log10 of the molar value. Like-named read-outs stand apart in the source and are kept apart here.

Tests used:
Format in all cases: cell-based
SSTR3 = SSTR3 (UniProt P32745); assay: cAMP functional agonist assay, CHO cells expressing SSTR3; settings: CHO cells stably expressing SSTR3, cAMP
Experimental: (§1) Chinese hamster ovary (CHO) cells stably expressing one of the six human or rodent somatostatin receptor subtypes are grown to 85-100% confluence on standard tissue culture dishes in F12-Ham's growth media (Hyclone) with following additives: 10% donor calf serum (Hyclone), 200 U/mL penicillin (Hyclone), 200 μg/mL streptomycin (Hyclone), 20 mM HEPES (Hyclone), 200 μg/mL hygromycin Hyclone.
(§2) General overview: All SSTR subtypes are Gi coupled G-protein coupled receptors (GPCRs) that lead to decreases in intracellular cyclic AMP (cAMP) when activated by an agonist. Therefore, measurement of intracellular cAMP levels can be used to assess whether compounds of the invention are agonists of SSTR subtypes (John Kelly, Troy Stevens, W. Joseph Thompson, and Roland Seifert, Current Protocols in Pharmacology, 2005, 2.2.1-2.2). One example of an intracellular cAMP assay is described below.

SSTR4 = molecular target: T1, SSTR4 (Homo sapiens, UniProt P31391); assay: cAMP functional agonist assay, CHO cells expressing SSTR4
T1 construct: expressed in transfected cells
Experimental: as §1
(§3) General overview: All SSTR subtypes are Gi coupled G-protein coupled receptors (GPCRs) that lead to decreases in intracellular cyclic AMP (cAMP) when activated by an agonist. […] One example of an intracellular cAMP assay is described below.

SSTR5 = molecular target: T2, SSTR5 (Homo sapiens, UniProt P35346); assay: cAMP functional agonist assay, CHO cells expressing SSTR5; settings: CHO cells stably expressing SSTR5, cAMP
T2 construct: expressed in transfected cells
Experimental: as §1, §2

SSTR1 = molecular target: T3, SSTR1 (Homo sapiens, UniProt P30872); assay: cAMP functional agonist assay, CHO cells expressing SSTR1
T3 construct: expressed in transfected cells
Experimental: as §1, §3

[1] = CHO cells stably expressing SSTR1, cAMP, read-out: SSTR1 EC50

Chain of SSTR3 (P32745 whole entry): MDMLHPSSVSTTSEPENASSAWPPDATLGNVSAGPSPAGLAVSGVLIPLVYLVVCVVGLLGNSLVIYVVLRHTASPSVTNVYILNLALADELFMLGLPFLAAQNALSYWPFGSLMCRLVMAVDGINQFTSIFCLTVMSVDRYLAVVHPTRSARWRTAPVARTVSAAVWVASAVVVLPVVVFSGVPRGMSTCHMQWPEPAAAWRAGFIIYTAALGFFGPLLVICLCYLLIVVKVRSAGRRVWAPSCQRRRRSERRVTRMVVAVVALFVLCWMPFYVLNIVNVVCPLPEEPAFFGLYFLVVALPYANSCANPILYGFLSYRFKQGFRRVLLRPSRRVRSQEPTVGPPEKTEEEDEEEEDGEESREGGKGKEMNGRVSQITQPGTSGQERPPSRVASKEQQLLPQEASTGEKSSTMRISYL
T1 sequence (P31391 whole entry): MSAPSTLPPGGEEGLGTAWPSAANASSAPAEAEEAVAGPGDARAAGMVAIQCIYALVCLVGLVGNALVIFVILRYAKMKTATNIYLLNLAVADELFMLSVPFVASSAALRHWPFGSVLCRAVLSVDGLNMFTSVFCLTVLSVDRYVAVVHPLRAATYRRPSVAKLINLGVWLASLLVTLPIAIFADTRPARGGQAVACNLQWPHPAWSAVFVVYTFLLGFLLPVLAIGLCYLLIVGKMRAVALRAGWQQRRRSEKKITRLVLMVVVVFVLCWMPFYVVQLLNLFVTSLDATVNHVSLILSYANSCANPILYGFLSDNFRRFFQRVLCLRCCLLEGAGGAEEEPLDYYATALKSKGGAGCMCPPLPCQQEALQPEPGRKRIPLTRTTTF
T2 sequence (P35346 whole entry): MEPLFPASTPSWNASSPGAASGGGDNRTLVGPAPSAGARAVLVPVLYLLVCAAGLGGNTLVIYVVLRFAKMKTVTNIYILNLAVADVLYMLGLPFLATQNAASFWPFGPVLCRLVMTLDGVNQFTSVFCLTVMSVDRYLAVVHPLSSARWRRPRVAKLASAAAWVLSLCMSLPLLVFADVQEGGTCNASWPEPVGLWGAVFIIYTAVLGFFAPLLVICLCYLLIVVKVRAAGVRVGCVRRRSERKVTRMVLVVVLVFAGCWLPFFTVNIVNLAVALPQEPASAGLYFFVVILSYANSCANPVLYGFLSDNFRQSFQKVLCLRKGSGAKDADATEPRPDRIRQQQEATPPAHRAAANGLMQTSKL
T3 sequence (P30872 whole entry): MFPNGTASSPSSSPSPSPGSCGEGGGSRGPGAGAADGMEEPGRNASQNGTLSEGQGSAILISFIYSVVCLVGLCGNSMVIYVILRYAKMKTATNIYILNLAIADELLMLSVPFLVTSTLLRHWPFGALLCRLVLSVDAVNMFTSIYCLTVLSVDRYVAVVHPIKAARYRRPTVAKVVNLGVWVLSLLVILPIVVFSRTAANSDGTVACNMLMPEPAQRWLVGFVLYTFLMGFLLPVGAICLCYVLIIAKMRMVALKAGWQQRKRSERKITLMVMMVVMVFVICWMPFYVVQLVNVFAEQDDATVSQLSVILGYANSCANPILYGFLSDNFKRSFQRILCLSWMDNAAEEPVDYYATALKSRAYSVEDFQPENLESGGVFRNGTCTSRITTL

SMILES: Cc1cc(C)cc(-c2cnc3ncn(-c4cccc(O)c4)c(=O)c3c2CN(C)CC2(N)CCCC2)c1 [Compound A-12, 5-({[(1-aminocyclopentyl)methyl](methyl)amino}methyl)-6-(3,5-dimethylphenyl)-3-(3-hydroxyphenyl)-3H,4H-pyrido[2,3-d]pyrimidin-4-one]
- pEC50 (SSTR3): 5.00 to 7.00
- pEC50 (SSTR4): > 7.00
- pEC50 (SSTR5): 5.00 to 7.00

SMILES: Cc1cc(C)cc(-c2cnc3ncn(-c4cccc(O)c4)c(=O)c3c2CN(C)C[C@H](C)N)c1 [Compound A-8, 5-({[(2S)-2-aminopropyl](methyl)amino}methyl)-6-(3,5-dimethylphenyl)-3-(3-hydroxyphenyl)-3H,4H-pyrido[2,3-d]pyrimidin-4-one]
- pEC50 (SSTR3): 5.00 to 7.00
- pEC50 (SSTR4): > 7.00
- pEC50 (SSTR5): < 5.00

SMILES: Cc1cc(C)cc(-c2cnc3ncn(-c4cccc(O)c4)c(=O)c3c2CN(C)C[C@@H]2CCCN2)c1 [Compound A-17, 6-(3,5-dimethylphenyl)-3-(3-hydroxyphenyl)-5-({methyl[(2S)-pyrrolidin-2-ylmethyl]amino}methyl)-3H,4H-pyrido[2,3-d]pyrimidin-4-one]
- pEC50 (SSTR1): 5.00 to 7.00
- pEC50 (SSTR3): > 7.00
- pEC50 (SSTR4): > 7.00

SMILES: Cc1cc(Cl)cc(-c2cnc3ncn(-c4cc(O)cc(F)c4)c(=O)c3c2CN(C)C[C@H]2CCCN2)c1 [Compound A-53, 6-(3-chloro-5-methylphenyl)-3-(3-fluoro-5-hydroxyphenyl)-5-({methyl[(2R)-pyrrolidin-2-ylmethyl]amino}methyl)-3H,4H-pyrido[2,3-d]pyrimidin-4-one]
- pEC50 (SSTR1; [1]): 5.00 to 7.00
- pEC50 (SSTR3): > 7.00
- pEC50 (SSTR5): < 5.00

SMILES: Cc1cc(Cl)cc(-c2cnc3ncn(-c4cc(O)cc(F)c4)c(=O)c3c2CN(C)C[C@@H]2CCCN2)c1 [Compound A-47, 6-(3-chloro-5-methylphenyl)-3-(3-fluoro-5-hydroxyphenyl)-5-({methyl[(2S)-pyrrolidin-2-ylmethyl]amino}methyl)-3H,4H-pyrido[2,3-d]pyrimidin-4-one]
- pEC50 (SSTR1; [1]): 5.00 to 7.00
- pEC50 (SSTR3): > 7.00
- pEC50 (SSTR5): 5.00 to 7.00

SMILES: Cc1cc(C)cc(-c2cnc3ncn(-c4cccc(O)c4)c(=O)c3c2CN(C)C[C@H]2CCCN2)c1 [Compound A-16, 6-(3,5-dimethylphenyl)-3-(3-hydroxyphenyl)-5-({methyl[(2R)-pyrrolidin-2-ylmethyl]amino}methyl)-3H,4H-pyrido[2,3-d]pyrimidin-4-one]
- pEC50 (SSTR1): < 5.00
- pEC50 (SSTR3): > 7.00
- pEC50 (SSTR4): > 7.00
- pEC50 (SSTR5): < 5.00

SMILES: Cc1cc(C)cc(-c2cnc3ncn(-c4cccc(O)c4)c(=O)c3c2CN(C)CCN)c1 [Compound A-1, 5-{[(2-aminoethyl)(methyl)amino]methyl}-6-(3,5-dimethylphenyl)-3-(3-hydroxyphenyl)-3H,4H-pyrido[2,3-d]pyrimidin-4-one]
- pEC50 (SSTR1): < 5.00
- pEC50 (SSTR3): 5.00 to 7.00
- pEC50 (SSTR4; CHO cells stably expressing SSTR4, cAMP, read-out: SSTR4 EC50): > 7.00
- pEC50 (SSTR5): < 5.00

SMILES: Cc1cc(C)cc(-c2cnc3ncn(-c4cccc(O)c4)c(=O)c3c2CN(C)C[C@H]2CCCCN2)c1 [Compound A-14, 6-(3,5-dimethylphenyl)-3-(3-hydroxyphenyl)-5-({methyl[(2R)-piperidin-2-ylmethyl]amino}methyl)-3H,4H-pyrido[2,3-d]pyrimidin-4-one]
- pEC50 (SSTR1): < 5.00
- pEC50 (SSTR3): > 7.00
- pEC50 (SSTR4): > 7.00
- pEC50 (SSTR5): < 5.00

SMILES: CCN(CCN)Cc1c(-c2cc(C)cc(C)c2)cnc2ncn(-c3cccc(O)c3)c(=O)c12 [Compound A-2, 5-{[(2-aminoethyl)(ethyl)amino]methyl}-6-(3,5-dimethylphenyl)-3-(3-hydroxyphenyl)-3H,4H-pyrido[2,3-d]pyrimidin-4-one]
- pEC50 (SSTR1): < 5.00
- pEC50 (SSTR3): 5.00 to 7.00
- pEC50 (SSTR4): > 7.00
- pEC50 (SSTR5): 5.00 to 7.00

SMILES: COc1cccc(-n2cnc3ncc(-c4cc(C)cc(C)c4)c(CN(C)C[C@@H]4CCCN4)c3c2=O)c1 [Compound A-33, 6-(3,5-dimethylphenyl)-3-(3-methoxyphenyl)-5-({methyl[(2S)-pyrrolidin-2-ylmethyl]amino}methyl)-3H,4H-pyrido[2,3-d]pyrimidin-4-one]
- pEC50 (SSTR3): 5.00 to 7.00
- pEC50 (SSTR4): > 7.00

SMILES: Cc1cc(F)cc(-c2cnc3ncn(-c4cccc(O)c4)c(=O)c3c2CN(C)C[C@@H]2CCCN2)c1 [Compound A-36, 6-(3-fluoro-5-methylphenyl)-3-(3-hydroxyphenyl)-5-({methyl[(2S)-pyrrolidin-2-ylmethyl]amino}methyl)-3H,4H-pyrido[2,3-d]pyrimidin-4-one]
- pEC50 (SSTR1): 5.00 to 7.00
- pEC50 (SSTR3): 5.00 to 7.00
- pEC50 (SSTR4): > 7.00
- pEC50 (SSTR5): < 5.00

SMILES: CN(Cc1c(-c2cc(Cl)cc(CO)c2)cnc2ncn(-c3cccc(O)c3)c(=O)c12)C[C@@H]1CCCN1 [Compound A-38, 6-[3-chloro-5-(hydroxymethyl)phenyl]-3-(3-hydroxyphenyl)-5-({methyl[(2S)-pyrrolidin-2-ylmethyl]amino}methyl)-3H,4H-pyrido[2,3-d]pyrimidin-4-one]
- pEC50 (SSTR1): 5.00 to 7.00
- pEC50 (SSTR3): > 7.00
- pEC50 (SSTR4): > 7.00
- pEC50 (SSTR5): 5.00 to 7.00

SMILES: Cc1cc(C)cc(-c2cnc3ncn(-c4cccc(CO)c4)c(=O)c3c2CN(C)C[C@@H]2CCCN2)c1 [Compound A-40, 6-(3,5-dimethylphenyl)-3-[3-(hydroxymethyl)phenyl]-5-({methyl[(2S)-pyrrolidin-2-ylmethyl]amino}methyl)-3H,4H-pyrido[2,3-d]pyrimidin-4-one]
- pEC50 (SSTR3): 5.00 to 7.00
- pEC50 (SSTR4): > 7.00

SMILES: Cc1cc(C)cc(-c2cnc3ncn(-c4ccc(O)cc4)c(=O)c3c2CN(C)C[C@@H]2CCCN2)c1 [Compound A-41, 6-(3,5-dimethylphenyl)-3-(4-hydroxyphenyl)-5-({methyl[(2S)-pyrrolidin-2-ylmethyl]amino}methyl)-3H,4H-pyrido[2,3-d]pyrimidin-4-one]
- pEC50 (SSTR3): 5.00 to 7.00
- pEC50 (SSTR4): > 7.00

SMILES: Cc1cc(C)cc(-c2cnc3ncn(-c4cccc(O)c4)c(=O)c3c2CN2CCCC2CN)c1 (centres unmarked) [Compound A-11, 5-{[2-(aminomethyl)pyrrolidin-1-yl]methyl}-6-(3,5-dimethylphenyl)-3-(3-hydroxyphenyl)-3H,4H-pyrido[2,3-d]pyrimidin-4-one]
- pEC50 (SSTR1): 5.00 to 7.00
- pEC50 (SSTR4): > 7.00

SMILES: Cc1cc(C)cc(-c2cnc3ncn(-c4cc(O)cc(F)c4)c(=O)c3c2CN(C)C[C@@H]2CCCN2)c1 [Compound A-45, 6-(3,5-dimethylphenyl)-3-(3-fluoro-5-hydroxyphenyl)-5-({methyl[(2S)-pyrrolidin-2-ylmethyl]amino}methyl)-3H,4H-pyrido[2,3-d]pyrimidin-4-one]
- pEC50 (SSTR1): 5.00 to 7.00
- pEC50 (SSTR3): > 7.00
- pEC50 (SSTR4): > 7.00
- pEC50 (SSTR5): < 5.00

SMILES: CNC(=O)c1cccc(-n2cnc3ncc(-c4cc(C)cc(C)c4)c(CN(C)C[C@@H]4CCCN4)c3c2=O)c1 [Compound A-43, 3-[6-(3,5-dimethylphenyl)-5-({methyl[(2S)-pyrrolidin-2-ylmethyl]amino}methyl)-4-oxo-3H,4H-pyrido[2,3-d]pyrimidin-3-yl]-N-methylbenzamide]
- pEC50 (SSTR3): 5.00 to 7.00
- pEC50 (SSTR4): > 7.00

SMILES: Cc1cc(C)cc(-c2cnc3ncn(-c4cccc(C(N)=O)c4)c(=O)c3c2CN(C)C[C@@H]2CCCN2)c1 [Compound A-39, 3-[6-(3,5-dimethylphenyl)-5-({methyl[(2S)-pyrrolidin-2-ylmethyl]amino}methyl)-4-oxo-3H,4H-pyrido[2,3-d]pyrimidin-3-yl]benzamide]
- pEC50 (SSTR1): < 5.00
- pEC50 (SSTR3): 5.00 to 7.00
- pEC50 (SSTR4): > 7.00
- pEC50 (SSTR5): < 5.00

SMILES: Cc1cc(C)cc(-c2cnc3ncn(-c4cccc(O)c4)c(=O)c3c2CN(C)C[C@@H]2CCCCN2)c1 [Compound A-15, 6-(3,5-dimethylphenyl)-3-(3-hydroxyphenyl)-5-({methyl[(2S)-piperidin-2-ylmethyl]amino}methyl)-3H,4H-pyrido[2,3-d]pyrimidin-4-one]
- pEC50 (SSTR1): 5.00 to 7.00
- pEC50 (SSTR3): > 7.00
- pEC50 (SSTR4): > 7.00
- pEC50 (SSTR5): 5.00 to 7.00

SMILES: Cc1cc(C)cc(-c2cnc3ncn(-c4cccc(O)c4)c(=O)c3c2CN2CCC(N)C2)c1 (centres unmarked) [Compound A-10, 5-[(3-aminopyrrolidin-1-yl)methyl]-6-(3,5-dimethylphenyl)-3-(3-hydroxyphenyl)-3H,4H-pyrido[2,3-d]pyrimidin-4-one]
- pEC50 (SSTR3): < 5.00
- pEC50 (SSTR4): 5.00 to 7.00

SMILES: Cc1cc(C)cc(-c2cnc3ncn(-c4cccc(O)c4)c(=O)c3c2CN(C)C(C)CN)c1 (centres unmarked) [Compound A-7, 5-{[(1-aminopropan-2-yl)(methyl)amino]methyl}-6-(3,5-dimethylphenyl)-3-(3-hydroxyphenyl)-3H,4H-pyrido[2,3-d]pyrimidin-4-one]
- pEC50 (SSTR3): 5.00 to 7.00
- pEC50 (SSTR4): > 7.00

SMILES: Cc1cc(C)cc(-c2cnc3ncn(-c4cccc(O)c4)c(=O)c3c2CN(C)CC2COCCN2)c1 (centres unmarked) [Compound A-19, 6-(3,5-dimethylphenyl)-3-(3-hydroxyphenyl)-5-{[methyl(morpholin-3-ylmethyl)amino]methyl}-3H,4H-pyrido[2,3-d]pyrimidin-4-one]
- pEC50 (SSTR3): > 7.00
- pEC50 (SSTR4): > 7.00
- pEC50 (SSTR5): < 5.00

SMILES: Cc1cc(C)cc(-c2cnc3ncn(-c4cccc(O)c4)c(=O)c3c2CN(C)C[C@@H]2CCN2)c1 [Compound A-18, 5-({[(2S)-azetidin-2-ylmethyl](methyl)amino}methyl)-6-(3,5-dimethylphenyl)-3-(3-hydroxyphenyl)-3H,4H-pyrido[2,3-d]pyrimidin-4-one]
- pEC50 (SSTR1): 5.00 to 7.00
- pEC50 (SSTR3): 5.00 to 7.00
- pEC50 (SSTR4): > 7.00
